Bounds are passed on as bounds.

This note sets out measurements from a melting point compilation (Tetko et al.; mined from patent text by program, amines drawn as free bases though some values may be those of a salt).

`CCC(Oc1cc(C)ccc1C)C(=O)OC1CC(O)C=C2C=CC(C)C(CCC3CC(O)CC(=O)O3)C21` (mixture of isomers): the melting point fell in the range of 138 to 140 °C.

Compound `COC1CN(C(=O)c2cc(-c3ccccc3)c(=O)n3c2-c2cc(Cl)ccc2CN3)C1` gave a melting point of 238 to 239 °C.

Regarding `COc1ccc2cc(I)ccc2c1`, the melting point fell in the range of 142 to 143 °C.

For the compound `COC(=O)c1cccc(C)c1N`, the melting point is 27 to 29 °C.

Regarding `COc1ccc(C2(C(C)(C)O)CCN(C)CC2)cc1`, the melting point was in the range of 114 to 115 °C.

In turn, `Cc1ccc(C2(CCC(=O)O)NC(=O)NC2=O)cc1Cl` (stereo not drawn) had a melting point of 196 to 199 °C.

As for `CN(C)CCOc1ccc(/C=C/C(=O)N2CC(CCl)c3c2cc(OCc2ccccc2)c2ncccc32)cc1` (stereo not drawn), the melting point is 172 to 175 °C.

As to `CS(=O)(=O)Nc1ccc(C(=O)C2CCN(CCCOc3ccc([N+](=O)[O-])cc3)CC2)cc1`, the melting point was in the range of 162 to 164 °C.

As to `CCCCCCC(C(=O)OCC)n1cnc2c([N+](=O)[O-])cccc21` (stereo not drawn), the melting point was in the range of 86 to 89 °C.

Turning to `Cn1c(=O)c2ccccc2n(Cc2ccc(F)cc2)c1=N`, the melting point was 135 to 137 °C.

`COC(=O)c1c(Cl)nc2cc3c(cc2c1CN1CCN(C)CC1)OCCO3` displayed a melting point of 143 °C.

Consider `CN1Cc2ccccc2C(=O)c2c1nc1ccc(Br)cc1c2Cl`, for which the melting point was in the range of 153 to 155 °C.

`CC(=CN=Cc1ccccc1Cl)c1cccs1` came in with a melting point of 102 °C.

As for `CC1CC(=Cc2ccccc2Cl)C(=O)O1` (stereo not drawn), the melting point is 48 °C.

For the compound `CC(C)(C)c1nc(C=O)c[nH]1`, the melting point is 194 to 195 °C.

The compound `NC(=O)c1sc2nc(N3CCC(NCC(O)c4ccncc4)CC3)cc(C(F)(F)F)c2c1N` (stereo not drawn) gave a melting point of 217 to 220 °C.

Turning to `Cc1cnc2ccc3c(c2c1)OC(CN1CC=C(c2c[nH]c4ccccc24)CC1)CO3` (stereo not drawn), the melting point was in the range of 211 to 213 °C.

With `CC(C#N)CNc1ccccc1[N+](=O)[O-]` (stereo not drawn), the melting point lay in the range of 44 to 47 °C.

For the compound `O=S(Cc1cc(OCc2ccc(C(F)(F)F)cc2)ccn1)c1nc2cscc2[nH]1` (stereo not drawn), the melting point worked out at 149 °C.

The compound `C=CC(=O)NCCCCCCCCOc1ccccc1` returned a melting point of 45 to 47 °C.

In turn, `CC(C)c1ccc2c(c1)C=C(C(=O)O)CC2` yielded a melting point of 160 to 162 °C.

Regarding `C[C@H](NC1=NS(=O)(=O)c2sc(Cl)cc2N1)c1ccccc1`, the melting point fell in the range of 195 to 204 °C.

The compound `CCOC(=O)CCCCC=Cc1cccc(Oc2cccc(C=O)c2)c1` showed a melting point of 142 to 145 °C.

`COc1ccc(/C=C/c2ccncn2)cc1OC1CCCC1` showed a melting point of 83 to 84.5 °C.

In turn, `CCOC(=O)c1c(NCc2ccc(OC)c(Cl)c2)ccnc1Cl` yielded a melting point of 116 to 118 °C.

Consider `COc1cc2c(Cl)c(C#N)cnc2cc1OS(=O)(=O)C(F)(F)F`, for which the melting point was 112 to 113 °C.

Compound `CC(=O)OC1C(COC(=O)c2ccccc2)OC(n2cc(Cl)c(N)nc2=O)C1F` (stereo not drawn) displayed a melting point of 233 °C.

Take `COc1cc2c(=O)n(CCN(C)C)c3c(cnc4cccc(N)c43)c2cc1OC`: the melting point lay within 239 to 241 °C.

In turn, `COC(=O)c1cc(OC)c(OC)c2c1C=CCO2` showed a melting point of 88.5 to 90 °C.

The compound `COc1cc(OC)nc(Oc2cc(C)nc(-c3ccccc3)c2C(=O)O)n1` yielded a melting point of 277 to 284 °C.

In turn, `COc1ccc2c(SC(C)(C)C)c(C(C)C(C)(C)C(=O)O)[nH]c2c1` (stereo not drawn) registered a melting point of 133 °C.

For the compound `O=c1[nH]nc(-c2cccc(C(F)(F)F)c2)c2ncccc12`, the melting point fell in the range of 210 to 215 °C.

The compound `Nc1c(Cl)cc(C(O)CNCCCCCOCCc2ccc(F)cc2)cc1Cl` (stereo not drawn) registered a melting point of 75 to 76 °C.

`CN(Cc1ccc(F)cc1)C1CCN(c2ccc(C(=O)O)cc2)CC1`: the melting point lay within 256 to 258 °C.

As to `COc1cccc(-c2cc(NC(=O)CC(=O)C(F)(F)F)[nH]n2)c1`, the melting point is 107 to 110 °C.

In turn, `COc1ccc(C(O)c2ccccc2OC)cn1` (stereo not drawn) yielded a melting point of 83 to 84 °C.

`CCc1[nH]n(C2CCCC2)c2nc(-c3ccccc3OC)nc(=O)c1-2`: the melting point fell in the range of 135 to 136 °C.

In the case of `COc1ccc(C2=NN(c3ccc(C(=O)Nc4ccc(-c5ccc(=O)[nH]n5)cc4)cc3)C(=O)[C@H]3CC=CC[C@@H]23)cc1OC` (relative stereo), the melting point is 272 to 273 °C.

Regarding `c1ccc2c(c1)oc1nnccc12`, the melting point was 120 to 122 °C.

The compound `Cc1onc(-c2ccc(-c3cscn3)cc2)c1-c1ccc(S(C)(=O)=O)c(F)c1` came in with a melting point of 130 °C.

`CC(=O)Nc1ccc(C(F)(F)F)cc1C`: the melting point was 160 °C.

As for `CCNC(=O)c1sc(-n2ccc(OCc3ccccc3)cc2=O)cc1C`, the melting point was 158 to 160 °C.

Compound `CCc1nc(-c2ccc(OCCCc3ccccc3)cc2)no1` returned a melting point of 41 to 42 °C.

Consider `O=C1CCCN1CCc1c2ccccc2n2c1[nH]c(=O)c1ccccc12`, for which the melting point was 154 to 155 °C.

On to `COC(=O)C(C)(C)CCCOc1cc(C)c(NC(C)=O)cc1C`, for which the melting point was in the range of 99 to 100 °C.

Consider `Cc1noc(C)c1Cn1cc(NC(=O)Cc2ccccc2)cn1`, for which the melting point fell in the range of 106 to 108 °C.

Regarding `CC(=O)c1noc2ccccc12`, the melting point lay in the range of 30 to 32 °C.

`COC(=O)CCC(NC(=O)Nc1cccc(C)c1)C(=O)O` (racemic) had a melting point of 127 °C.

For the compound `O=C(Nc1ccc(-n2nc(C(F)(F)F)cc2C(F)(F)F)cc1)c1ccc(O)cc1`, the melting point was more than 245 °C.

Regarding `NC1=Nc2cc(Cl)ccc2Nc2cscc21`, the melting point fell in the range of 239 to 240 °C.

The compound `c1ccc(-c2ccc3nncn3n2)cc1` gave a melting point of 138 to 139 °C.

`CC(C)COC1OC(CO)C(O)C(O)C1(O)N(C(=O)N(CCCl)N=O)C(C)C` (stereo not drawn) gave a melting point of 83 to 85 °C.

The compound `CC1CCCC(C)N1S(=O)(=O)N[C@@H](Cc1ccc(Oc2nccc3cnccc23)cc1)C(=O)O` (stereo partly drawn) displayed a melting point of 151 °C.

For `Cc1cccc(CO)c1Cl`, the melting point was in the range of 63 to 64 °C.

In the case of `CCCCC(CC)COC(=O)c1cc(OC)c(O)c(OC)c1` (stereo not drawn), the melting point lay in the range of 35 to 36 °C.

Take `COc1ccc2ncccc2c1N`: the melting point lay in the range of 152 to 154 °C.

Consider `CC(C)(O)CNCCN(C1CCNCC1)S(=O)(=O)c1ccc(Nc2nccc(Nc3ccc(F)cc3)n2)cc1`, for which the melting point is 120 °C.

Regarding `CC1CCN(c2cc(C(C)(C)C)no2)C1=O` (stereo not drawn), the melting point was 73 to 75 °C.

As to `N#Cc1cc([N+](=O)[O-])ccc1N1CCC(NCCO)CC1`, the melting point came out at 115 °C.

As for `O=c1c(-c2ccccc2)c(Cn2ccnc2)oc2ccccc12`, the melting point lay within 168 to 171 °C.

For the compound `CCOC(=O)C1=C(COCc2ccc(CN3CCOCC3)o2)NC(C)=C(C(=O)OC)C1c1ccccc1Cl` (stereo not drawn), the melting point was in the range of 85 to 87 °C.

For the compound `CC(C)(C)c1cc(SC(=O)NN)cc(C(C)(C)C)c1O`, the melting point lay within 130 to 131 °C.

Regarding `CNC(=S)C1(c2cccnc2)CCCCC1=CCOc1ccccc1` (stereo not drawn), the melting point is 121 to 122 °C.

Compound `CCOC(=O)CNC(=O)Oc1c(C)n(CCOC)ccc1=O` had a melting point of 134 to 135 °C.

Consider `CCOC(=O)C(Cl)=Cc1ccc([N+](=O)[O-])cc1`, for which the melting point is 108 to 110 °C.

On to `COc1ccc2c(c1)CCN(Cc1cnc(C)nc1N)C2`, for which the melting point was 142 to 143 °C.

The compound `COc1ccc2oc3ccccc3c2c1C(=O)Nc1cc(Cl)ccc1Cl` came in with a melting point of 202 °C.

Compound `COC(=O)C1CCCN(C(=O)OCc2ccccc2)N1C(=O)C(Br)CBr` (stereo not drawn) returned a melting point of 132 to 134 °C.

Consider `CCOC(=O)COc1cc(F)c(-c2nn(C)c(C(F)(F)F)c2Cl)cc1[N+](=O)[O-]`, for which the melting point is 95 to 96 °C.

In turn, `CCOc1ccc2c(c1)n(C1CCCCC1)c(=O)n2S(=O)(=O)c1ccc([N+](=O)[O-])cc1OC` had a melting point of 162 °C.

`CCCCCCCCCCCCCCCCCCOCC(CO)Oc1nccs1` (stereo not drawn): the melting point fell in the range of 65 to 67 °C.

For the compound `CC1Nc2ccc(-c3ccc(C#N)s3)cc2C(C)(C)O1` (stereo not drawn), the melting point lay within 172 to 173 °C.

For the compound `CCOC(=O)c1cc(=O)c2c(C)c(Cl)c(C)cc2o1`, the melting point is 114 to 116 °C.

`CNC1=NN(C(=O)c2cccc([N+](=O)[O-])c2)C(C)(C)S1`: the melting point is 130 to 133 °C.

Compound `CC(C)n1nc(-c2cc(C(N)=O)c(Cl)nc2-c2ccccc2)ccc1=O` had a melting point of 199 to 200 °C.

For `Cc1cc(OCc2ccccc2)ccc1OCc1ccccc1`, the melting point is 42 to 43 °C.

For the compound `CCCCCCCCCCCCCCC#Cc1cccc(C=O)n1`, the melting point lay within 38.5 to 40 °C.

`CCOc1c(CO)cnc2c1cnn2CC` came in with a melting point of 100 to 102 °C.

The compound `O=C(Nc1ccc(OC(F)(F)F)cc1)c1ccccc1NCc1ccc(=O)[nH]c1` yielded a melting point of 189 °C.

In the case of `CC12CCC3c4ccccc4CCC3C1CCC2NCc1ccccc1` (stereo not drawn), the melting point is 71 to 74 °C.

Take `COC(=O)C=Cc1ccc(C(=O)O)s1`: the melting point worked out at 156 °C.

In the case of `COC(=O)c1cccc2nc(SCCCCCCCCC(=O)Nc3c(SC)cc(C)nc3SC)oc12`, the melting point fell in the range of 126 to 128 °C.

On to `CC(C)C(OCc1ccccc1)[C@H]1[C@H]([N+](=O)[O-])[C@@H](c2ccco2)N[C@@H]1C(=O)NCCC(=O)O` (stereo partly drawn), for which the melting point was 70 to 72 °C.

Compound `CCCCCCCCN(CC(=O)NO)S(=O)(=O)c1ccc(C)cc1` displayed a melting point of 89 °C.

As to `O=C(OC1CCN(Cc2ccccc2)CC1)c1ccc(Br)cc1`, the melting point lay within 71 to 72 °C.

Take `OCCOc1ccc2cccnc2c1`: the melting point lay within 93 to 95 °C.

`COc1ccc(-c2cnc(C(N)=O)nc2)cc1OC1CCCC1` yielded a melting point of 235 to 238 °C.

For `Oc1cccc(C2CCCN(CCc3c[nH]c4ccccc34)C2)c1` (stereo not drawn), the melting point was 130 to 135 °C.

`O=C(O)CC(Sc1nc2ccccc2s1)C(=O)O` (stereo not drawn) registered a melting point of 165 to 168 °C.

On to `CC(Oc1ccccc1C(C)C)C(=O)OC1CC(O)C=C2C=CC(C)C(CCC3CC(O)CC(=O)O3)C21` (mixture of isomers), for which the melting point lay within 138 to 141 °C.

With `Cc1nc2c(s1)CC(CO)CC2` (stereo not drawn), the melting point lay within 101 to 102 °C.

`CCCCCCCCCCCCCCc1ccc(OC)cc1` had a melting point of 38 °C.

`CCCCCCCCOC1(OC(=O)C2CCCO2)C=CC(c2ccccc2)=CC1` (stereo not drawn): the melting point was 119 °C.

For orientation: melting point means the temperature of the solid-liquid transition.
